# Laboratory results: patent publication US12729377B2, “RNAi agents and compositions for inhibiting expression of angiopoietin-like 3 (ANGPTL3), and methods of use” (Arrowhead Pharmaceuticals, Inc., priority 2017, dated 2026)
# In the oligonucleotide strings, read from the 5' end, every base follows the letter of its sugar. An asterisk marks phosphorothioate; unmarked linkages are phosphodiester. Other units and linkages are bracketed, terminal groups are in braces. A string of capitals states the bases alone. {NAG37} = tridentate N-acetyl-galactosamine targeting ligand, structure (NAG37)s; [invAb] = inverted abasic unit; m = 2'-O-methyl; f = 2'-fluoro
# What was measured:
# [1] = tested on: ANGPTL3 mRNA; test: Example 11: liver ANGPTL3 mRNA by RT-qPCR in mice; type: in vivo, C57bl/6 mice
# Method: To assess the dose response of ANGPTL3 RNAi agent AD05488, six- to eight-week-old female C57bl/6 mice were used. Pre-dose serum samples were taken at day −1 after a four hour fast. At day 1, each mouse was given a single subcutaneous administration of 200 μl containing the respective mg/kg dose of an ANGPTL3 RNAi agent in D5W (dextrose in 5% water), or control (D5W) with no RNAi agent, according to the dosing groups recited in Table 53:
# Additionally, ANGPTL3 mRNA levels were also assessed. All of the mice from each respective group were sacrificed on day 29 after serum collection, livers were harvested, and approximately 100 mg liver samples were collected and snap-frozen in liquid nitrogen for RNA isolation.
# [2] = tested on: ANGPTL3 gene; test: Example 14: RNAi agent and statin, serum LDL in LDLR knockout mice; type: in vivo, LDLR KO mice
# Description: To evaluate the effect of co-administration of RNAi agents and statins in a disease model, LDLR KO mice were commercially obtained (The Jackson Laboratory). For three weeks prior to the onset of the study, forty-one (41) male 7 to 8 week old LDLR KO mice were placed on a high fat (“western”) diet (Teklad Custom Diets TD.88137), and remained on that diet throughout the duration of the study. Pre-dose serum samples were taken on study Day 1 after a four hour fast. The dosing regimen for the study is recited in the following Table 72:
# • Mice were treated at 40 mg/kg for the first 11 days, then switched to 20 mg/kg thereafter.
# The vehicle used for the oral gavage in the study was a 1:1 mixture of Ora-Plus®: Ora-Sweet® solution, which were acquired commercially. For the preparation of the atorvastatin oral gavage administrations, the respective desired dose of atorvastatin was first dissolved in sterile water (0.3 mL water per 1 mL of desired formulation) and vortexed until smooth, followed by the addition of a mixture of 1:1 Ora-Plus®: Ora-Sweet® solution (0.7 mL vehicle per 1 mL of desired formulation) and vortexed. On day 1 and for each day thereafter an oral gavage dose was administered for each of the Groups except for Group 2. On Day 23, Groups 1, 2, 3, and 4 received a single subcutaneous administration of 2.5 mg/kg dose ([…] solution) of an ANGPTL3 RNAi agent in D5W (dextrose in 5% water), or vehicle control (D5W) with no RNAi agent.
# The RNAi agent tested (AD05488) included a modified sequence and an N-acetyl-galactosamine-containing targeting ligand conjugated to the 5′ terminal end of the sense strand. (See Tables 3, 4, and 5 for modified sequences and targeting ligand structures). The injections were performed between the skin and muscle (i.e. subcutaneous injections) into the loose skin over the neck and shoulder area. Serum was collected on days 8, 15, 22 (pre-RNAi agent injection), 29, 36, 43, and 50. LDLR KO mice were fasted for four hours prior to each collection.
# ANGPTL3 protein levels in serum were measured by ELISA assay (R&D Systems), according to the manufacturer's recommendations. Among other biomarkers, triglycerides, total cholesterol, and low-density lipoprotein (LDL) in serum were measured on a Cobas® Integra 400 (Roche Diagnostics), according to the manufacturer's recommendations.
# The ANGPTL3 protein levels, triglyceride levels, total cholesterol levels, HDL levels, and LDL levels for each animal were normalized. For normalization, respective levels of ANGPTL3 protein, TG, total cholesterol, or LDL for each animal at a time point was divided by the pre-treatment level of expression in that animal (in this case pre-dose levels on Day 1) to determine the ratio of expression “normalized to pre-treatment.” Data from the study set forth in this Example are shown in the following Tables 73-76: […]
substance,measurement,setting,value
"AD05488: RNAi agent duplex: antisense AM07235-AS, sense AM07234-SS (antisense mU*fA*mC*fUmGfAmUfCmAfAmAfUmAfUmGfUmUfGmAfG*mC; sense {NAG37}*[invAb]*mGmCmUmCmAmAmCmAfUfAfUmUmUmGmAmUmCmAmGmUmA*[invAb])","Avg Relative ANGPTL3 mRNA, Normalized to Control","[1]; 0.05 mg/kg single sc day 1, Day 29",0.798
same,"Avg Relative ANGPTL3 mRNA, Normalized to Control","[1]; 0.1 mg/kg single sc day 1, Day 29",0.563
same,"Avg Relative ANGPTL3 mRNA, Normalized to Control","[1]; 0.5 mg/kg single sc day 1, Day 29",0.277
same,"Avg Relative ANGPTL3 mRNA, Normalized to Control","[1]; 1.0 mg/kg single sc day 1, Day 29",0.123
same,"Avg Relative ANGPTL3 mRNA, Normalized to Control","[1]; 2.5 mg/kg single sc day 1, Day 29",0.036
same,"Avg Relative ANGPTL3 mRNA, Normalized to Control","[1]; 5.0 mg/kg single sc day 1, Day 29",0.038
same,reduction in ANGPTL3 mRNA,"[1]; day 29, single subcutaneous dose, C57bl/6 mice",reduction
same,Avg LDL normalized to pre-treatment,"[2]; Group 2: no gavage, 2.5 mg/kg AD05488 SC on day 23, Day 8 (pre-RNAi agent injection)",0.893
same,Avg LDL normalized to pre-treatment,"[2]; Group 2: no gavage, 2.5 mg/kg AD05488 SC on day 23, Day 15 (pre-RNAi agent injection)",1.051
same,Avg LDL normalized to pre-treatment,"[2]; Group 2: no gavage, 2.5 mg/kg AD05488 SC on day 23, Day 22 (pre-RNAi agent injection)",1.113
same,Avg LDL normalized to pre-treatment,"[2]; Group 2: no gavage, 2.5 mg/kg AD05488 SC on day 23, Day 29",0.653
same,Avg LDL normalized to pre-treatment,"[2]; Group 2: no gavage, 2.5 mg/kg AD05488 SC on day 23, Day 36",0.492
same,Avg LDL normalized to pre-treatment,"[2]; Group 2: no gavage, 2.5 mg/kg AD05488 SC on day 23, Day 43",0.443
same,Avg LDL normalized to pre-treatment,"[2]; Group 2: no gavage, 2.5 mg/kg AD05488 SC on day 23, Day 50",0.480
same,Avg LDL normalized to pre-treatment,"[2]; Group 3: 10 mg/kg daily oral gavage atorvastatin, 2.5 mg/kg AD05488 on day 23, Day 8 (pre-RNAi agent injection)",0.692
same,Avg LDL normalized to pre-treatment,"[2]; Group 3: 10 mg/kg daily oral gavage atorvastatin, 2.5 mg/kg AD05488 on day 23, Day 15 (pre-RNAi agent injection)",0.537
same,Avg LDL normalized to pre-treatment,"[2]; Group 3: 10 mg/kg daily oral gavage atorvastatin, 2.5 mg/kg AD05488 on day 23, Day 22 (pre-RNAi agent injection)",0.659
same,Avg LDL normalized to pre-treatment,"[2]; Group 3: 10 mg/kg daily oral gavage atorvastatin, 2.5 mg/kg AD05488 on day 23, Day 29",0.422
same,Avg LDL normalized to pre-treatment,"[2]; Group 3: 10 mg/kg daily oral gavage atorvastatin, 2.5 mg/kg AD05488 on day 23, Day 36",0.312
same,Avg LDL normalized to pre-treatment,"[2]; Group 3: 10 mg/kg daily oral gavage atorvastatin, 2.5 mg/kg AD05488 on day 23, Day 43",0.264
same,Avg LDL normalized to pre-treatment,"[2]; Group 3: 10 mg/kg daily oral gavage atorvastatin, 2.5 mg/kg AD05488 on day 23, Day 50",0.256
same,Avg LDL normalized to pre-treatment,"[2]; Group 4: 20 mg/kg* daily oral gavage atorvastatin (40 mg/kg first 11 days), 2.5 mg/kg AD05488 on day 23, Day 8 (pre-RNAi agent injection)",0.572
same,Avg LDL normalized to pre-treatment,"[2]; Group 4: 20 mg/kg* daily oral gavage atorvastatin (40 mg/kg first 11 days), 2.5 mg/kg AD05488 on day 23, Day 15 (pre-RNAi agent injection)",0.515
same,Avg LDL normalized to pre-treatment,"[2]; Group 4: 20 mg/kg* daily oral gavage atorvastatin (40 mg/kg first 11 days), 2.5 mg/kg AD05488 on day 23, Day 22 (pre-RNAi agent injection)",0.755
same,Avg LDL normalized to pre-treatment,"[2]; Group 4: 20 mg/kg* daily oral gavage atorvastatin (40 mg/kg first 11 days), 2.5 mg/kg AD05488 on day 23, Day 29",0.434
same,Avg LDL normalized to pre-treatment,"[2]; Group 4: 20 mg/kg* daily oral gavage atorvastatin (40 mg/kg first 11 days), 2.5 mg/kg AD05488 on day 23, Day 36",0.240
same,Avg LDL normalized to pre-treatment,"[2]; Group 4: 20 mg/kg* daily oral gavage atorvastatin (40 mg/kg first 11 days), 2.5 mg/kg AD05488 on day 23, Day 43",0.217
same,Avg LDL normalized to pre-treatment,"[2]; Group 4: 20 mg/kg* daily oral gavage atorvastatin (40 mg/kg first 11 days), 2.5 mg/kg AD05488 on day 23, Day 50",0.242
same,total reductions in LDL,"[2]; co-administration of atorvastatin and RNAi agent (Groups 3 and 4), LDLR KO mice on high fat diet",~ 80%
